By IC50 is commonly meant the concentration that inhibits the measured activity by half.

The structures appear in SMILES notation.

The target of this experiment is CDK2 (Homo sapiens, UniProt P24941). Briefly: CDK2 substrate phosphorylation assay. The format is biochemical. The settings on record: CDK2 expressed in baculovirus system; peptide Biotin-aminohexyl-ARRPMSPKKKA-NH2, [g-32P]ATP; pIC50 = −log10(IC50). As for the experimental part:
The compounds of the present invention have valuable pharmacologic properties. Different compounds from this class are particularly effective at inhibiting CDK2. Substrate phosphorylation assays were carried out as follows:
Cyclin dependent protein kinase 2 assays utilized the peptide Biotin-aminohexyl-ARRPMSPKKKA-NH2 (SEQ ID NO:1) as phosphoryl group acceptor. CDK2 was expressed utilizing a baculovirus expression system and was partially purified to comprise 20-80% of total protein, with no detectable competing reactions present. Typically, assays were performed by incubating enzyme (0.2-10 nM), with and without inhibitor, peptide substrate ([…]), [g-32P]ATP ([…]), and 10-20 mM Mg2+ for periods of time generally within the range 10-120 minutes. Reactions were terminated with 0.2-2 volumes of either 20% acetic acid or 50-100 mM EDTA buffered to pH 7 (substrate consumption <20%). The buffer employed in enzyme assay was 100 mM HEPES pH 7.5 containing 0.1 mg/mL BSA and 5% DMSO. Inhibitors were diluted in 100% DMSO prior to addition into the assay. Detection of peptide phosphorylation was accomplished by scintillation counting following either collection of peptide onto phosphocellulose filters (for reactions stopped with acetic acid), collection of peptide in wells of 96 well plates coated with Streptavidin (Pierce) (reactions were stopped with EDTA), or addition of Avidin coated Scintillant impregnated beads (Scintillation Proximity Assays from Amersham, reactions were stopped with EDTA). Counts detected by any of these methodologies minus the appropriate background (assays with additional 40 mM EDTA or lacking peptide substrate) were assumed to be proportional to the reaction initial rates, and IC50s were determined by a least squares fit to the equation CPM=Vmax*(1−([I]/(K+[I])))+nsb, or −pIC50s were determined by a fit to the equation CPM=nsb+(Vmax−nsb)/(1+(x/10x−pIC50)), where nsb are the background counts […]. Radioactivity was determined by liquid scintillation counting.

Take `NS(=O)(=O)c1ccc(Nc2cc(-c3cccc(NC(=O)Nc4cc(C(F)(F)F)ccc4F)c3)n[nH]2)cc1` [Compound Il, 4-(5-{3-[3-(2-Fluoro-5-trifluoromethyl-phenyl)-ureido]-phenyl}-2H-pyrazol-3-ylamino)-benzenesulfonamide]: the IC50 was 10.2 to 100 nM.
The same measure for `NS(=O)(=O)c1ccc(Nc2cc(-c3cccc(N4CCOCC4)c3)n[nH]2)cc1` [In, 4-[5-(3-Morpholin-4-yl-phenyl)-2H-pyrazol-3-ylamino]-benzenesulfonamide]: 102 to 20000 nM; for `Nc1ccc(-c2cc(Nc3ccc(S(N)(=O)=O)cc3)[nH]n2)cc1` [Ih, 4-[5-(4-Amino-phenyl)-2H-pyrazol-3-ylamino]-benzenesulfonamide]: 0.102 to 1 nM.
The same measure for `Nc1cccc(-c2cc(Nc3ccc(S(N)(=O)=O)cc3)[nH]n2)c1` [Compound Ij, 4-[5-(3-Amino-phenyl)-2H-pyrazol-3-ylamino]-benzenesulfonamide]: 1.02 to 10 nM.

For the origin of these results see patent publication US7507834B2, “Substituted anilinopyrazoles” (SmithKline Beechan Corporation, priority 2003, dated 2009).
